Assays:
Assay in all cases: combination Emax (second highest fraction inhibited in the dose matrix, 72 h); higher = more inhibition; extreme values may be limits of the assay
[1] = tested on: SK-OV-3 (Ovarian Carcinoma)
Summary of the method: (§1)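 After 24 hours at 37°C and 5% CO2 in 1536-well plates, cells in DMEM/F12 or RPMI plus 10% FBS received two-drug dose matrices for 72 hours. Viability came from CellTiter-Glo 2.0 luminescence and was scaled as inhibition, anchored at 0 by vehicle wells and at 1 by blank wells. Combination Emax is taken as the second-highest inhibition in the matrix, and Bliss excess as the observed combination effect less EA + EB − EA·EB, with EA and EB the single-agent effects.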

[2] = tested on: LoVo (Colorectal Carcinoma)
Summary of the method: as §1

[3] = tested on: OC-314 (Ovarian Carcinoma)
Summary of the method: as §1

[4] = tested on: RT-112 (Bladder Carcinoma)
Summary of the method: as §1

[5] = tested on: HARA (Squamous Cell Lung Carcinoma)
Summary of the method: as §1

[6] = tested on: PCI-30 (Head and Neck Carcinoma)
Summary of the method: as §1

[7] = tested on: RPMI-6666 (Non-Cancerous)
Summary of the method: as §1

[8] = tested on: EN (Endometrial Carcinoma)
Summary of the method: as §1

[9] = tested on: SW1271 (Small Cell Lung Carcinoma)
Summary of the method: as §1

[10] = tested on: MDA-MB-468 (Breast Carcinoma)
Summary of the method: as §1

[11] = tested on: CAPAN-1 (Pancreatic Carcinoma)
Summary of the method: as §1

NCI-H2461 (Mesothelioma) = tested on: NCI-H2461 (Mesothelioma)
Summary of the method: as §1

[12] = tested on: HDLM-2 (Hodgkin's Lymphoma)
Summary of the method: as §1

HMV-II (Melanoma) = tested on: HMV-II (Melanoma)
Summary of the method: as §1

[13] = tested on: SU-DHL-6 (B-Cell Non-Hodgkin's Lymphoma)
Summary of the method: as §1

[14] = tested on: CAL-54 (Kidney Carcinoma)
Summary of the method: as §1

[15] = tested on: RKO (Colorectal Carcinoma)
Summary of the method: as §1

[16] = tested on: 8305C (Thyroid Gland Carcinoma)
Summary of the method: as §1

SH-4 (Melanoma) = tested on: SH-4 (Melanoma)
Summary of the method: as §1

[17] = tested on: LU-139 (Small Cell Lung Carcinoma)
Summary of the method: as §1

Row | SMILES | combination Emax [1] | combination Emax [2] | combination Emax [3] | combination Emax [4] | combination Emax [5] | combination Emax [6] | combination Emax [7] | combination Emax [8] | combination Emax [9] | combination Emax [10] | combination Emax [11] | combination Emax (NCI-H2461 (Mesothelioma)) | combination Emax [12] | combination Emax (HMV-II (Melanoma)) | combination Emax [13] | combination Emax [14] | combination Emax [15] | combination Emax [16] | combination Emax (SH-4 (Melanoma)) | combination Emax [17]
1 | O=C(c1cc(Cc2n[nH]c(=O)c3ccccc23)ccc1F)N1CCN(C(=O)C2CC2)CC1 [Olaparib] + CN(CC[C@H](CSC1=CC=CC=C1)NC2=C(C=C(C=C2)S(=O)(=O)NC(=O)C3=CC=C(C=C3)N4CCC(CC4)[C@H](C5=CC=CC=C5C6=CC=C(C=C6)Cl)O)S(=O)(=O)C(F)(F)F)CCO [AZD4320] (first compound max 10 µM, 7x7, partner max 1 µM) | 0.219 | 0.187 | 0.262 | 0.153 | 0.162 | 0.188 | 0.94 | 0.297 | 0.21 | 0.684 | 0.663 | 0.17 | 0.878 | 0.0872 | 0.919 | 0.236 | 0.11 | 0.385 | 0.162 | 0.958
2 | O=C(c1cc(Cc2n[nH]c(=O)c3ccccc23)ccc1F)N1CCN(C(=O)C2CC2)CC1 [Olaparib] + COc1nnc2ccc(N3CCC(c4ccc(OCCN5CCN(C)C(=O)[C@H]5C)cc4)CC3)nn12 [AZD5153] (first compound max 10 µM, 7x7, partner max 1 µM) | 0.516 | 0.436 | 0.798 | 0.157 | 0.582 | 0.251 | 0.633 | 0.347 | 0.573 | 0.503 | 0.418 | 0.42 | 0.356 | 0.474 | 0.917 | 0.737 | 0.672 | 0.495 | 0.514 | 0.896
3 | O=C(c1cc(Cc2n[nH]c(=O)c3ccccc23)ccc1F)N1CCN(C(=O)C2CC2)CC1 [Olaparib] + Cc1c2c(nn1C)CSCc1cc(n(C)n1)CSc1cc(c3ccccc3c1)OCCCc1c(C(=O)O)n(C)c3c-2c(Cl)ccc13 [AZD5991] (first compound max 10 µM, 7x7, partner max 1 µM) | 0.174 | 0.162 | 0.191 | 0.672 | 0.277 | 0.103 | 0.794 | 0.476 | 0.131 | 0.42 | 0.366 | 0.127 | 0.937 | 0.0925 | 1 | 0.208 | 0.137 | 0.311 | 0.155 | 0.132
4 | N#Cc1cnc(Nc2cc(NC[C@H]3CNCCO3)c(C(F)(F)F)cn2)cn1 [SRA737] + C=CCn1c(=O)c2cnc(Nc3ccc(N4CCN(C)CC4)cc3)nc2n1-c1cccc(C(C)(C)O)n1 [AZD1775] (first compound max 10 µM, partner max 1 µM) | 0.572 | 0.852 | 0.928 | 0.954 | 0.983 | 0.687 | 0.865 | 0.696 | 0.488 | 0.642 | 0.507 | 0.709 | 0.697 | 0.53 | 0.933 | 0.749 | 0.957 | 0.553 | 0.656 | 0.564
5 | N#Cc1cnc(Nc2cc(NC[C@H]3CNCCO3)c(C(F)(F)F)cn2)cn1 [SRA737] + CCc1c2c(nc3ccc(O)cc13)-c1cc3c(c(=O)n1C2)COC(=O)[C@]3(O)CC [SN-38] (first compound max 10 µM, 7x7, partner max 0.3 µM) | 0.542 | 0.775 | 0.994 | 0.95 | 0.898 | 0.843 | 0.915 | 0.678 | 0.608 | 0.791 | 0.758 | 0.638 | 0.724 | 0.546 | 1 | 0.793 | 0.925 | 0.615 | 0.518 | 0.747
6 | CC1(C)CCC(CN2CCN(c3ccc(C(=O)NS(=O)(=O)c4ccc(NCC5CCOCC5)c([N+](=O)[O-])c4)c(Oc4cnc5[nH]ccc5c4)c3)CC2)=C(c2ccc(Cl)cc2)C1 [Venetoclax] + CS(=O)(=O)CCNCc1ccc(-c2ccc3ncnc(Nc4ccc(OCc5cccc(F)c5)c(Cl)c4)c3c2)o1 [Lapatinib] (first compound max 1 µM, 7x7, partner max 10 µM) | 0.345 | 0.486 | 0.399 | 0.146 | 0.584 | 0.167 | 0.55 | 0.288 | 0.373 | 0.635 | 0.261 | 0.268 | 0.629 | 0.519 | 0.975 | 0.52 | 0.325 | 0.356 | 0.0973 | 0.19

From the supplement of paper PMC11061612
